# According to PubChem BioAssay (NCI):
# Values joined by “and” are separate entries in the source; they are usually repeats but may differ in a detail not shown here. Identical values can stand only once.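 Exposure lasted 48 hours, with cells grown in 96-well plates and compounds tested at five concentrations. GI50: concentration for 50% inhibition of growth. TGI denotes the concentration required for complete inhibition of growth.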
# Key:
# Experiment in all cases: DTP human tumour cell line panel, 48 h
# [1] = tested on: OVCAR-5 ovarian
# [2] = tested on: HT29 colon
# [3] = tested on: SK-MEL-5 melanoma
# [4] = tested on: UACC-62 melanoma
# [5] = tested on: HOP-92 NSCLC
# [6] = tested on: SF-268 CNS
# [7] = tested on: HOP-62 NSCLC
# [8] = tested on: CCRF-CEM leukemia
# [9] = tested on: UACC-257 melanoma
# [10] = tested on: HS 578T breast
Structure (SMILES),GI50 [1],TGI [1],GI50 [2],TGI [2],GI50 [3],TGI [3],GI50 [4],TGI [4],GI50 [5],TGI [5],GI50 [6],TGI [6],GI50 [7],TGI [7],GI50 [8],TGI [8],GI50 [9],TGI [9],GI50 [10],TGI [10]
COc1ccc2oc(=O)cc(C(c3ccc[nH]3)c3ccc[nH]3)c2c1,0.128 µM,19.9 µM,0.104 µM,0.659 µM,0.08 µM,0.141 µM,0.152 µM,14 µM,0.0985 µM,2.83 µM,0.129 µM,16.3 µM,0.107 µM,11.7 µM,0.105 µM,29.9 µM,0.468 µM,18 µM,0.171 µM,50.5 µM
Clc1ncnc(Cl)c1Cl,,> 100 µM,,> 100 µM,,> 100 µM,,> 100 µM,,> 100 µM,,> 100 µM,,> 100 µM,,> 100 µM,,,,> 100 µM
FC(F)(F)Oc1cccc(-c2cnc3ccc(-c4ccncc4)nn23)c1,1.96 µM,> 100 µM,1.34 µM,> 100 µM,1.49 µM,3.23 µM,1.01 µM,6.17 µM,1.8 µM,7.82 µM,2.22 µM,> 100 µM,2.17 µM,> 100 µM,2.03 µM,27 µM,2.02 µM,,1.21 µM,4.24 µM
O=C(O)CCNc1ccccc1C(=O)O,,> 100 µM,,> 100 µM,,> 100 µM,,> 100 µM,,> 100 µM,,> 100 µM,,> 100 µM,,> 100 µM,,> 100 µM,,> 100 µM
Cc1cccc(NC(=O)CCc2ccc(N3C(N)=NC(N)=NC3(C)C)cc2)c1,> 37.2 µM,> 100 µM,0.364 µM,> 100 µM,2.48 µM,> 100 µM,2.37 µM,> 100 µM,26 µM,> 100 µM,0.547 µM,> 100 µM,16.9 µM,> 100 µM,1.07 µM,> 100 µM,28.1 µM,> 100 µM,> 52 µM,> 100 µM
COc1ccc(OC)c(/C=N/NC(=O)Cc2csc3nc(-c4ccc(Br)cc4)cn23)c1,50.2 µM,> 100 µM,16.4 µM,> 100 µM,8.89 µM,42.5 µM,12.1 µM,27.7 µM,13.9 µM,35.5 µM,> 100 µM,> 100 µM,13.2 µM,30.3 µM,9.59 µM,> 100 µM,23.9 µM,97.5 µM,11.6 µM,45.4 µM
Clc1ccc(CSC(Cn2ccnc2)c2ccc(Cl)cc2Cl)cc1 (stereo not drawn),2.13 µM,6.84 µM,1.44 µM,2.81 µM,1.61 µM,2.96 µM,1.17 µM,2.43 µM,0.914 µM,2.44 µM,1.66 µM,3.83 µM,1.41 µM,2.73 µM,1.94 µM,5.46 µM,1.43 µM,2.86 µM,1.97 µM,5.02 µM
CN(C)CCOc1ccc(-c2nc(-c3ccc4c(c3)CC/C4=N\O)c(-c3ccncc3)[nH]2)cc1,3.7 µM and 1.61 µM,7.55 µM and 6.27 µM,0.127 µM and 0.29 µM,4.53 µM and 3.49 µM,3.31 µM and 5.46 µM,6.81 µM and 19.9 µM,0.0177 µM and 0.0275 µM,2.55 µM and 0.876 µM,0.71 µM and 1.15 µM,4.29 µM and 24.1 µM,4.38 µM and 7.26 µM,9.05 µM and 15.4 µM,4.3 µM and 4.48 µM,9.23 µM and 13.1 µM,4.32 µM and 2.43 µM,11.3 µM and 10.2 µM,0.0456 µM and 0.0489 µM,1.07 µM and 2.74 µM,3.96 µM and 25.7 µM,9.4 µM and 65.5 µM
CC[C@]12CCCN3CCc4c(n(c5ccccc45)C(=O)C1)[C@@H]32,,> 100 µM,,> 52.7 µM,,> 35.1 µM,,> 100 µM,,> 100 µM,,> 75 µM,,> 100 µM,,33.1 µM,,> 100 µM,,49.1 µM
O=C1C(Cl)=C(Nc2cccc(Cl)c2)C(=O)N1Cc1ccccc1,9.49 µM,33.1 µM,,,6.83 µM,20.3 µM,12.4 µM,27.5 µM,5.36 µM,26.3 µM,6.76 µM,22.2 µM,11.2 µM,24.4 µM,2.39 µM,> 100 µM,,,6.34 µM,27.5 µM
O=C1c2ccccc2-c2c1c1ccccc1c(=O)n2CCCCNCCCn1c2c(c3ccccc3c1=O)C(=O)c1ccccc1-2,0.676 µM,1.54 µM,0.0929 µM,8.95 µM,0.529 µM,1.49 µM,0.445 µM,3.22 µM,0.994 µM,3.45 µM,0.358 µM,6.93 µM,0.13 µM,1.42 µM,,,3.23 µM,13.8 µM,0.822 µM,16 µM
CCCCC[C@H](O)/C=C/[C@@H]1[C@@H](C/C=C\CCCC(=O)O)[C@@H](O)C[C@H]1O,> 100 µM,> 100 µM,> 100 µM,> 100 µM,> 100 µM,> 100 µM,> 100 µM,> 100 µM,> 100 µM,> 100 µM,> 100 µM,> 100 µM,,,> 100 µM,> 100 µM,> 100 µM,> 100 µM,> 100 µM,> 100 µM
Cc1nc(-c2cccc(Nc3nc(-c4ccc(Cl)cc4)cs3)c2)cs1,,,,,10.5 µM,19.7 µM,6.83 µM,15 µM,17.1 µM,> 50 µM,10.4 µM,24.2 µM,12.3 µM,24.5 µM,,,8.76 µM,18.1 µM,14.1 µM,34.9 µM
Cc1ccc(S(=O)(=O)OC2CCN(C)CC2)cc1,,> 100 µM,,> 100 µM,,44.6 µM,,> 100 µM,,42.3 µM,,> 100 µM,,> 100 µM,,,,> 100 µM,,> 100 µM
